Measurements as given in publication PMC4055595, “Pharmacokinetic Compatibility of Ginsenosides and Schisandra Lignans in Shengmai-san: From the Perspective of P-Glycoprotein” (PLoS ONE, 2014).
Read-outs that look alike come from different tables or passages of the source.

Assays:
[1] = system: Caco-2 cells; test: Uptake of digoxin and ginsenosides in Caco-2 cells; format: in vitro ADME, human; details: for Effect of verapamil on uptake: 10 µM verapamil; for Effect of SLE on intracellular concentration: SLE 2.0 and 10.0 µg/mL, P<0.01
Procedure: (§1) Caco-2 cells were purchased from American Type Culture Collection (Manassas, VA), and were routinely cultured in Dulbecco's modified Eagle's medium supplemented with 10% fetal bovine serum, 1% nonessential amino acids, 1 mM sodium pyruvate, and 100 U/mL penicillin and streptomycin (Invitrogen, Carlsbad, CA). The cells were grown in an atmosphere of 5% CO2 at 37°C, and cell medium was changed every other day. Cells were seeded at a density of 4×10^4 cells per well in 24-well microporous polycarbonate insert filter plates (0.4-µm pore size) (Corning Costar plates; Corning Life Sciences, Lowell, MA) and grown for 15 days in Caco-2 growth medium. The medium was replaced every 3 to 4 days. Before running the assay, the culture medium was replaced by HBSS buffer supplemented with 10 mM Hepes and 20 mM glucose.
Caco-2 cells were incubated with SLE (2.0 and 10.0 µg/mL) or verapamil (10 µM) for 1.0 h. Then the cells were washed with Hank's to discard SLE or verapamil before the addition of GE (100 µg/mL). The accumulation of ginsenosides lasted for 2 h, and the intracellular concentrations of ginsenosides were measured by LC/MS. All experiments were conducted in triplicate.

[2] = Rat plasma pharmacokinetics after single-dose vehicle/SLE and digoxin or GE; format: in vivo, Sprague-Dawley rats; details: for AUC(0-inf): read-out: AUCINF_obs; for MRT inf: read-out: MRTINF_obs; for Effect of SLE treatment on Cmax / Increase of AUC (AUC0-∞) by coadministration of SLE: single-dose SLE 500 mg/kg vs vehicle, GE ig
Procedure: This study was carried out in strict accordance with the recommendations in the Guide for the Care and Use of Laboratory Animals of the National Institutes of Health. The protocol was approved by the Committee on the Ethics of Animal Experiments of the China Pharmaceutical University. All surgery was performed under sodium pentobarbital anesthesia, and all efforts were made to minimize suffering. Female healthy Sprague-Dawley rats (200±20 g) were purchased from the Laboratory Animal Center of Peking University Health Science Center (Beijing, PR China) and kept in an environmentally controlled breeding room for at least 3 days before experimentation. The rats were fed with standard laboratory food and water and fasted overnight but with free access to water before the test. To evaluate the effect of single treatment of SLE on the pharmacokinetics of ginsenosides, 24 rats were divided into four groups (group I ∼ group IV) averagely. […] In group II (control group): the rats received a single dose of vehicle (0.5% CMC-Na), and digoxin (0.5 mg/kg) was also given to the rats by intragastric administration. […] In group IV (control group): the rats received a single dose of vehicle (0.5% CMC-Na), and GE (120 mg/kg) was also given to the rats by gavage. […] Plasma was obtained by centrifugation at 5000 g for 10 min and stored at −20°C before analysis. The plasma / cell samples were extracted using a liquid–liquid extraction technique. To each tube containing 100 µL plasma, 10 µL internal standard (digoxin, 1.0 µg/mL) and 1.0 mL of n-butanol were added. The mixture was then vortex-extracted for 2 min, and centrifuged for 10 min at 10,000 g. […] The plasma concentration-time curves of ginsenosides in rats were obtained by plotting the mean plasma concentrations versus time. Pharmacokinetic parameters were calculated using the WinNonlin 6.3 program (Pharsight Inc., Mountain View, CA). The elimination half-life (t 1/2) value was calculated as 0.693/β, where β is the elimination rate constant calculated from the terminal linear portion of the log plasma concentration-time curve. The total areas under the plasma concentration- time curve from time 0 to the last quantifiable time point (AUC0-t) and from time 0 to infinity (AUC0-∞) were calculated using the log trapezoidal rule. [drawing 3] The maximum plasma concentrations (C max) for ginsenosides were obtained by visual inspection of the plasma concentration-time curve, whereas the initial drug concentration (the extrapolated concentration at zero time) of the drug after intravenous injection was calculated by back-extrapolation of the plasma concentration-time curve to the y-axis.

[3] = Transport of digoxin and ginsenosides across Caco-2 cell monolayer (efflux ratio); format: in vitro ADME, human; details: human
Procedure: as §1
(§2) Caco-2 cells with a density of 1.2×10^5 cells/insert were seeded on a permeable polycarbonate insert (Millicell cell culture inserts, 0.4 µm pore size, 12 mm diameter; Millipore Corporation) in 24-well tissue culture plates and were used for the experiment 18 to 21 days after seeding. [^14C]Mannitol permeability and transepithelial electrical resistance measurements (Millicell-ERS epithelial volt-ohm meter; Millipore Corporation) were used to evaluate the integrity of Caco-2 cell monolayer. The monolayer used in transport studies had transepithelial electrical resistance values exceeding 600 Ω·cm^2, and the leakage of mannitol was less than 0.3% of the dose/h. Before transport initiation studies, the cell monolayer was first washed with warm HBSS (pH 7.4) twice. HBSS containing SLE (2.0 and 10.0 µg/mL) or 1% ethanol (control) was then loaded into both apical and basolateral chambers. After incubation at 37°C for 1.5 h, 100 µg/mL of GE was added to either the apical or basolateral side to evaluate the transport in absorptive and secretory directions, and the cell monolayer was incubated for another 2 h. 10 µM verapamil was used as a positive control inhibitor. At the designated time point, samples were taken from the receiving chamber for analysis. Ginsenosides were determined by LC-MS. All experiments were conducted in triplicate.
(§3) For the transport assay, the apparent permeability (P app, cm/s) in each direction (A→B and B→A) was calculated as follows, where A is the surface area of the membrane inserts (0.0804 cm^2), C 0 is the initial concentration of the compound applied in the donor compartment (2 µM), and △Q is the amount (micromoles) of compound transported over time △t (5 h = 18,000 s): [drawing 1]
(§4) The efflux ratio (ER) was a dimensionless number calculated as the ratio of the apparent permeability in the B→A direction divided by the apparent permeability in the A→B direction. [drawing 2]

[4] = system: Caco-2 cell monolayer; test: as above; format: in vitro ADME, human
Procedure: as §1, §2, §3, §4

[5] = female, Sprague-Dawley, rat, plasma, po, rats, control: single vehicle (0.5% sodium CMC), 2 h later digoxin 0.5 mg/kg or GE 120 mg/kg ig, read-out: t1/2 (converted)
[6] = female, Sprague-Dawley, rat, plasma, po, rats, control: single vehicle, 2 h later digoxin 0.5 mg/kg or GE 120 mg/kg ig
[7] = female, Sprague-Dawley, rat, plasma, po, rats, control: single vehicle, 2 h later digoxin 0.5 mg/kg or GE 120 mg/kg ig, read-out: Tmax
[8] = female, Sprague-Dawley, rat, plasma, po, rats, single SLE 500 mg/kg ig, 2 h later digoxin 0.5 mg/kg or GE 120 mg/kg ig
[9] = female, Sprague-Dawley, rat, plasma, po, rats, single SLE 500 mg/kg ig, 2 h later digoxin 0.5 mg/kg or GE 120 mg/kg ig, read-out: Tmax
[10] = female, Sprague-Dawley, rat, plasma, po, rats, single SLE 500 mg/kg ig, 2 h later digoxin 0.5 mg/kg or GE 120 mg/kg ig, read-out: t1/2 (converted)
[11] = rats, control: single vehicle, 2 h later digoxin 0.5 mg/kg or GE 120 mg/kg ig
[12] = rats, single SLE 500 mg/kg ig, 2 h later digoxin 0.5 mg/kg or GE 120 mg/kg ig
[13] = pH 7.4, Caco-2 cell monolayer, absence of inhibitor, GE 100 µg/mL, read-out: Efflux ratio
[14] = female, Sprague-Dawley, rat, in vivo, po

Row | SMILES | Effect of verapamil on uptake [1] | Effect of SLE on intracellular concentration [1] | half-life [2, 5] | AUC [2, 6] | Cmax [2, 6] | AUC(0-inf) [2, 6] | MRT inf [2, 6] | Tmax [2, 7] | AUC [2, 8] | Cmax [2, 8] | AUC(0-inf) [2, 8] | MRT inf [2, 8] | Tmax [2, 9] | half-life [2, 10] | Cl_F_obs [2, 11] | Cl_F_obs [2, 12] | Effect of SLE treatment on Cmax ([2]; rats) | Increase of AUC (AUC0-∞) by coadministration of SLE ([2]; rats) | efflux ratio at 2 h, 100 µg/mL [3, 13] | also measured
1 | CC(C)=CCC[C@](C)(O[C@@H]1O[C@H](CO[C@@H]2OC[C@H](O)[C@H](O)[C@H]2O)[C@@H](O)[C@H](O)[C@H]1O)[C@H]1CC[C@]2(C)[C@@H]1[C@H](O)C[C@@H]1[C@@]3(C)CC[C@H](O[C@@H]4O[C@H](CO)[C@@H](O)[C@H](O)[C@H]4O[C@@H]4O[C@H](CO)[C@@H](O)[C@H](O)[C@H]4O)C(C)(C)[C@@H]3CC[C@]12C [Rb2, ginsenoside Rb2] | significantly enhanced | concentration dependently increase | 19.4 ± 2.87 h | 10200 ± 1710 ng·h/mL | 330 ± 70.9 ng/mL | 10600 ± 1730 ng·h/mL | 27.9 ± 4.2 h | 7 ± 2 h | 22300 ± 5270 ng·h/mL | 541 ± 45 ng/mL | 23200 ± 5570 ng·h/mL | 25.2 ± 3.63 h | 9.5 ± 3 h | 19 ± 3.84 h | 0.012 ± 0.003 L/h | 0.004 ± 0.001 L/h | significantly enhanced | 2.18 fold | – | AUCINF_obs [2, 11]: 10551 ± 1728 ng·h/mL; AUCINF_obs [2, 12]: 23198 ± 5566 ng·h/mL
2 | C[C@H]1O[C@@H](O[C@H]2[C@@H](O)C[C@H](O[C@H]3[C@@H](O)C[C@H](O[C@H]4CC[C@@]5(C)[C@H](CC[C@@H]6[C@@H]5C[C@@H](O)[C@]5(C)[C@@H](C7=CC(=O)OC7)CC[C@]65O)C4)O[C@@H]3C)O[C@@H]2C)C[C@H](O)[C@@H]1O [Digoxin, digoxin, reference compound] | significantly enhanced | – | 3.08 ± 1.23 h | 61.8 ± 13.4 ng·h/mL | 15 ± 5.07 ng/mL | 67.5 ± 13.4 ng·h/mL | 5.15 ± 1.09 h | 1.28 ± 0.36 h | 84.4 ± 7.25 ng·h/mL | 17.5 ± 2.26 ng/mL | 91 ± 8.39 ng·h/mL | 5.06 ± 0.42 h | 1.58 ± 0.38 h | 2.98 ± 0.36 h | 7.66 ± 1.53 L/h | 5.53 ± 0.48 L/h | – | – | 3.23 | –
3 | CC(C)=CCC[C@](C)(O[C@@H]1O[C@H](CO)[C@@H](O)[C@H](O)[C@H]1O)[C@H]1CC[C@]2(C)[C@@H]1[C@H](O)C[C@@H]1[C@@]3(C)CC[C@H](O[C@@H]4O[C@H](CO)[C@@H](O)[C@H](O)[C@H]4O[C@@H]4O[C@H](CO)[C@@H](O)[C@H](O)[C@H]4O)C(C)(C)[C@@H]3CC[C@]12C [Rd, ginsenoside Rd] | significantly enhanced | concentration dependently increase | 75.4 ± 42.7 h | 5350 ± 1400 ng·h/mL | 237 ± 79 ng/mL | 7410 ± 2180 ng·h/mL | 21.6 ± 49 h | 7.5 ± 1 h | 7960 ± 2000 ng·h/mL | 227 ± 57.8 ng/mL | 9040 ± 2200 ng·h/mL | 25.1 ± 7.45 h | 7.5 ± 1 h | 21.8 ± 6.78 h | 0.014 ± 0.003 L/h | 0.011 ± 0.003 L/h | not dramatically changed | 1.86 fold | 4.47 | Effect of verapamil on efflux ratio ([4]; Caco-2 cells, 10 µM verapamil): decreased significantly; Effect of SLE on BL-AP transport / efflux ratio ([4]; Caco-2 monolayer, SLE 2.0 and 10.0 µg/mL): concentration dependently decrease
4 | CC(C)=CCC[C@](C)(O[C@@H]1O[C@H](CO[C@@H]2O[C@@H](CO)[C@H](O)[C@H]2O)[C@@H](O)[C@H](O)[C@H]1O)[C@H]1CC[C@]2(C)[C@@H]1[C@H](O)C[C@@H]1[C@@]3(C)CC[C@H](O[C@@H]4O[C@H](CO)[C@@H](O)[C@H](O)[C@H]4O[C@@H]4O[C@H](CO)[C@@H](O)[C@H](O)[C@H]4O)C(C)(C)[C@@H]3CC[C@]12C [Rc, ginsenoside Rc] | – | – | – | – | – | – | – | – | – | – | – | – | – | – | – | – | – | – | – | efflux ratio at 2 h, 100 µg/mL ([3]; Caco-2, pH 7.4): 4.36; Tmax [2, 14]: 9.00 ± 2.00 h; t1/2 [2, 14]: 16.90 ± 2.14 h; Tmax ([2]; female, Sprague-Dawley, rat, in vivo, po, Tmax): 9.5 ± 3 h; half-life ([2]; female, Sprague-Dawley, rat, in vivo, po, t1/2): 17.3 ± 4.54 h
